Data set [1] addresses T1, recombinant guanylate cyclase reporter cell line (Rattus norvegicus, UniProt P20595).
T1 construct: expressed in transfected cells; CHO by own knowledge of the cited Wunder et al. 2005
T1 sequence (P20595 1-619): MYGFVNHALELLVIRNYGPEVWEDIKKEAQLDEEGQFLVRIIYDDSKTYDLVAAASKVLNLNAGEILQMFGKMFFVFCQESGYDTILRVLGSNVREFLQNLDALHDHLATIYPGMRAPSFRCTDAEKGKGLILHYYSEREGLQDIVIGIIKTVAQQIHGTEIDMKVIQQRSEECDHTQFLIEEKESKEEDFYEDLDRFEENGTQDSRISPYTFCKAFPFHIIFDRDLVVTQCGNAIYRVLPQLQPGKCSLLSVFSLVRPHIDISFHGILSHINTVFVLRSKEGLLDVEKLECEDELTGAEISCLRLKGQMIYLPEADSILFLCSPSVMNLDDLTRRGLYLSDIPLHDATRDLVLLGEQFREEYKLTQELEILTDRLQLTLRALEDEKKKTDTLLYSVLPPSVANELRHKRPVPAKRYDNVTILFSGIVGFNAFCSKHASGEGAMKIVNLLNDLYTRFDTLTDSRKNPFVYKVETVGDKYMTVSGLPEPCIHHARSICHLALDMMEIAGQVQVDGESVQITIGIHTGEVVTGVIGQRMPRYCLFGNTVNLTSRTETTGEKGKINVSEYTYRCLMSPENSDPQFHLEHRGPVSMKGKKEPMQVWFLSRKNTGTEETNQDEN
T1 sequence (P19686 1-690 partner): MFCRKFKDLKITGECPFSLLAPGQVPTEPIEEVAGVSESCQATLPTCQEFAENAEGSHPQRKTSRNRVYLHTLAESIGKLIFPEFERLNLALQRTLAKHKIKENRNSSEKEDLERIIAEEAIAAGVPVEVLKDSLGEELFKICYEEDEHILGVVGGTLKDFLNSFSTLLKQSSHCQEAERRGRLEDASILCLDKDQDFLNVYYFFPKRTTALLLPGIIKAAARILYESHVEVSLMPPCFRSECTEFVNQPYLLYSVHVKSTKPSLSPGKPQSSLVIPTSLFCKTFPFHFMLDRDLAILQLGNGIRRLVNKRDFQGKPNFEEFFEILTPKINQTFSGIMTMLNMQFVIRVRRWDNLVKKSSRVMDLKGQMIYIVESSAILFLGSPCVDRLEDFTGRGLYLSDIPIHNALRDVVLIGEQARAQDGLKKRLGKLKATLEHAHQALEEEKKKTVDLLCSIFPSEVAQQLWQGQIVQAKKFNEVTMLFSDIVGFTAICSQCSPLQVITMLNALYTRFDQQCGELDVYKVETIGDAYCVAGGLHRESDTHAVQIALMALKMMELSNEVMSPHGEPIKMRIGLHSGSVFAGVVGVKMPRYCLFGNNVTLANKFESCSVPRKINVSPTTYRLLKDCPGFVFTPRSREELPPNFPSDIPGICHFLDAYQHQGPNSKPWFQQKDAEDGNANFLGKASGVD
As to the kind of experiment: Effect on a recombinant guanylate cyclase reporter cell line. It counts as cell-based. On the procedure:
B-1. Effect on a Recombinant Guanylate Cyclase Reporter Cell Line
The cellular activity of the compounds according to the invention was determined using a recombinant guanylate cyclase reporter cell line, as described in F. Wunder et al., Anal. Biochem. 339, 104-112 (2005).

A short description of data set [2]: Pharmacokinetic parameters following intravenous and oral administration in rats. It counts as in vivo, male Wistar rats. Particulars: for clearance / MRT / half-life: male, Wistar, rat, plasma; for clearance: read-out: CLplasma (converted); for MRT: read-out: MRT; for half-life: read-out: t½ (converted). Here is the method: (§1) B-2. Determination of Pharmacokinetic Parameters Following Intravenous and Oral Administration
(§2) The pharmacokinetic parameters of the compounds according to the invention were determined in male Wistar rats and/or in female beagles and/or in cynomolgus monkeys and/or in male CD-1 mice. Intravenous administration in the case of mice and rats was carried out by means of a species-specific plasma/DMSO formulation, and in the case of dogs and monkeys by means of a water/PEG400/ethanol formulation. In all species, oral administration of the dissolved substance was performed via gavage, based on a water/PEG400/ethanol formulation.
(§3) An internal standard (which may also be a chemically unrelated substance) was added to the samples of the compounds of the invention, calibration samples and qualifiers, and there followed protein precipitation by means of acetonitrile in excess. Addition of a buffer solution matched to the LC conditions, and subsequent vortexing, was followed by centrifugation at 1000 g. The supernatant was analysed by LC-MS/MS using C18 reversed-phase columns and variable mobile phase mixtures. The substances were quantified via the peak heights or areas from extracted ion chromatograms of specific selected ion monitoring experiments.
(§4) The plasma concentration/time plots determined were used to calculate the pharmacokinetic parameters such as AUC, Cmax, t1/2 (terminal half-life), F (bioavailability), MRT (mean residence time) and CL (clearance), by means of a validated pharmacokinetic calculation program.
(§5) Since the substance quantification was performed in plasma, it was necessary to determine the blood/plasma distribution of the substance in order to be able to adjust the pharmacokinetic parameters correspondingly.
(§6) For this purpose, a defined amount of substance was incubated in K3 EDTA whole blood of the species in question in a rocking roller mixer for 20 min. After centrifugation at 1000 g, the plasma concentration was measured (by means of LC-MS/MS; see above) and determined by calculating the ratio of the Cblood/Cplasma value.

Data set [3] in a line: Pharmacokinetic parameters following intravenous and oral administration in dogs. The following applies: for MRT / clearance / half-life: female, beagle, dog, plasma; for clearance: read-out: CLplasma (converted); for half-life: read-out: t½ (converted). It counts as in vivo, female beagles. On the procedure:
as §1, §2, §3, §4, §5, §6

The mark [4] stands for this setting: intravenous administration (i.v.).

Consider 3 compounds from patent US20230346777A1, “USE OF SGC ACTIVATORS FOR THE TREATMENT OF OPHTHALMOLOGIC DISEASES” (Bayer Aktiengesellschaft, priority 2020, published 2023).

pEC50: −log10 of the molar value. Structures can show the parent of a compound that is named as a salt. Where two headings read alike, the source gives them in different places.

For orientation: pEC50 means −log10 of the EC50, conventionally taken in molar units. For orientation: MRT means the average time that molecules of a dose stay in the body. With `CC(C)CN1CCN(c2ccc(-c3ccc(Cl)cc3N3CCC[C@@H](n4ncc(C(=O)O)c4C(F)F)C3)cc2)CC1` (single isomer, unassigned) [Example 2, 1-[1-{4-Chloro-4′-[4-(2-methylpropyl)piperazin-1-yl][1,1′-biphenyl]-2-yl}piperidin-3-yl]-5-(difluoromethyl)-1H-pyrazole-4-carboxylic acid], in data set [1], the pEC50 was 8.07 and the “MEC (minimum effective concentration)” value amounted to 1.0 nM. Moreover, the AUCnorm in data set [2] (intravenous administration) came to 7.08 kg·h/L. Moreover, in data set [2] (iv, intravenous administration), the clearance is 2.33 mL/min/kg, the mean residence time (MRT) came to 3.44 h and the half-life was 188 min. Besides, in data set [2] (po, oral administration (p.o.)), the MRT was found to be 6.23 h and the half-life is 238 min. In data set [2] (oral administration (p.o.)), this compound showed an AUCnorm of 3.77 kg·h/L and an F of 53.3%. In addition, in data set [3] (setting [4]), the MRT was 25.6 h, the clearance is 0.167 mL/min/kg, the half-life was 1060 min and the AUCnorm is 81.7 kg·h/L. Further, in data set [3] (oral administration (p.o.)), the mean residence time (MRT) was determined as 21.3 h, the half-life is 840 min, the AUCnorm came out at 67.7 kg·h/L and the F is 82.8%.
On to `CC(C)CN1CCN(c2ccc(-c3ccc(Cl)cc3N3CCCC(n4ncc(C(=O)O)c4C(F)(F)F)C3)cc2)CC1` (single isomer, unassigned) [Example 9, 1-[1-{4-chloro-4′-[4-(2-methylpropyl)piperazin-1-yl][1,1′-biphenyl]-2-yl}piperidin-3-yl]-5-(trifluoromethyl)-1H-pyrazole-4-carboxylic acid hydrochloride], for which, in data set [1], the pEC50 was 7.96. The “MEC (minimum effective concentration)” value in data set [1] (hydrochloride) is 2.2 nM. For the same compound, the AUCnorm in data set [2] (intravenous administration) stood at 5.48 kg·h/L; in data set [2] (oral administration (p.o.)) it was 4.50 kg·h/L; in data set [3] (setting [4]), 37.4 kg·h/L; in data set [3] (oral administration (p.o.)) it was 31.7 kg·h/L. Besides, the clearance in data set [2] (iv, intravenous administration) was 3 mL/min/kg; in data set [3] (setting [4]), 0.5 mL/min/kg. Further, the mean residence time (MRT) in data set [2] (iv, intravenous administration) is 5.83 h; in data set [2] (po, oral administration (p.o.)) it was 8.51 h; in data set [3] (setting [4]) it was 10.3 h; in data set [3] (oral administration (p.o.)), 13.7 h. The half-life in data set [2] (iv, intravenous administration) is 246 min; in data set [2] (po, oral administration (p.o.)) it was 298 min; in data set [3] (setting [4]), 472 min; in data set [3] (oral administration (p.o.)) it was 557 min. The F worked out at 82.1% in data set [2] (oral administration (p.o.)) and 84.8% in data set [3] (oral administration (p.o.)).
In the case of `O=C(O)c1cnn(C2CCCN(c3cc(Cl)ccc3-c3ccc(N4CCN(CC5CC5)CC4)cc3)C2)c1C(F)(F)F` (single isomer, unassigned) [Example 10, 1-[1-[5-Chloro-2-[4-[4-(cyclopropylmethyl)piperazin-1-yl]phenyl]phenyl]-3-piperidyl]-5-(trifluoromethyl)pyrazole-4-carboxylic acid hydrochloride], in data set [1], the pEC50 was 7.99 and the “MEC (minimum effective concentration)” value is listed as 2.0 nM. Further, the AUCnorm in data set [2] (intravenous administration) was determined as 1.37 kg·h/L. Besides, in data set [2] (iv, intravenous administration), the clearance is 12.2 mL/min/kg, the MRT was 2.39 h and the half-life was 113 min. In addition, in data set [2] (po, oral administration (p.o.)), the MRT was 4.04 h and the half-life was 205 min. In data set [2] (oral administration (p.o.)), this compound displayed an AUCnorm of 0.52 kg·h/L and an F of 37.4%.
